System: P12-Ichikawa
Assay: cell viability relative to DMSO control; higher = less cytotoxic
Details: 48 h
Outline: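 Three leukemia lines were tested: NOMO1 and SEM at 500 cells/well and P12-Ichikawa at 1000 cells/well. Each was adapted for at least four passages in each medium and seeded in 5 μl in 1536-well plates, and library compounds in DMSO were pin-dosed from 47 μM to 0.79 nM in 11 threefold steps. After 48 h at 37°C, CellTiter-Glo One luminescence was read. Viability is a percentage relative to DMSO wells on each plate, with cell-free wells as background.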

[1] = HPLM + 10% dialyzed FBS, 0.000781 µM
[2] = HPLM + 10% dialyzed FBS, 0.00234 µM
[3] = HPLM + 10% dialyzed FBS, 0.00702 µM
[4] = HPLM + 10% dialyzed FBS, 0.0211 µM
[5] = HPLM + 10% dialyzed FBS, 0.0632 µM
[6] = HPLM + 10% dialyzed FBS, 0.19 µM
[7] = HPLM + 10% dialyzed FBS, 0.569 µM
[8] = HPLM + 10% dialyzed FBS, 1.71 µM
[9] = HPLM + 10% dialyzed FBS, 5.12 µM
[10] = HPLM + 10% dialyzed FBS, 15.4 µM
[11] = HPLM + 10% dialyzed FBS, 46.1 µM
[12] = RPMI 5 mM glucose + 10% FBS, 0.000781 µM
[13] = RPMI 5 mM glucose + 10% FBS, 0.00234 µM
[14] = RPMI 5 mM glucose + 10% FBS, 0.00702 µM
[15] = RPMI 5 mM glucose + 10% FBS, 0.0211 µM
[16] = RPMI 5 mM glucose + 10% FBS, 0.0632 µM
[17] = RPMI 5 mM glucose + 10% FBS, 0.19 µM
[18] = RPMI 5 mM glucose + 10% FBS, 0.569 µM
[19] = RPMI 5 mM glucose + 10% FBS, 1.71 µM
[20] = RPMI 5 mM glucose + 10% FBS, 5.12 µM
[21] = RPMI 5 mM glucose + 10% FBS, 15.4 µM
[22] = RPMI 5 mM glucose + 10% FBS, 46.1 µM
[23] = RPMI 5 mM glucose + 10% dialyzed FBS, 0.000781 µM
[24] = RPMI 5 mM glucose + 10% dialyzed FBS, 0.00234 µM
[25] = RPMI 5 mM glucose + 10% dialyzed FBS, 0.00702 µM
[26] = RPMI 5 mM glucose + 10% dialyzed FBS, 0.0211 µM
[27] = RPMI 5 mM glucose + 10% dialyzed FBS, 0.0632 µM
[28] = RPMI 5 mM glucose + 10% dialyzed FBS, 0.19 µM
[29] = RPMI 5 mM glucose + 10% dialyzed FBS, 0.569 µM
[30] = RPMI 5 mM glucose + 10% dialyzed FBS, 1.71 µM
[31] = RPMI 5 mM glucose + 10% dialyzed FBS, 5.12 µM
[32] = RPMI 5 mM glucose + 10% dialyzed FBS, 15.4 µM
[33] = RPMI 5 mM glucose + 10% dialyzed FBS, 46.1 µM

Structure (SMILES) | cell viability [1] [%] | cell viability [2] [%] | cell viability [3] [%] | cell viability [4] [%] | cell viability [5] [%] | cell viability [6] [%] | cell viability [7] [%] | cell viability [8] [%] | cell viability [9] [%] | cell viability [10] [%] | cell viability [11] [%] | cell viability [12] [%] | cell viability [13] [%] | cell viability [14] [%] | cell viability [15] [%] | cell viability [16] [%] | cell viability [17] [%] | cell viability [18] [%] | cell viability [19] [%] | cell viability [20] [%] | cell viability [21] [%] | cell viability [22] [%] | cell viability [23] [%] | cell viability [24] [%] | cell viability [25] [%] | cell viability [26] [%] | cell viability [27] [%] | cell viability [28] [%] | cell viability [29] [%] | cell viability [30] [%] | cell viability [31] [%] | cell viability [32] [%] | cell viability [33] [%]
CN1CCC(=C2c3ccccc3CCc3sccc32)CC1 | 110 | 108 | 111 | 106 | 111 | 118 | 112 | 111 | 114 | 111 | 90.8 | 108 | 116 | 109 | 117 | 119 | 124 | 132 | 110 | 120 | 116 | 89.7 | 101 | 107 | 113 | 104 | 109 | 108 | 115 | 114 | 115 | 107 | 82.4
COC(=O)[C@@H]1CC2=CC(=O)CC[C@]2(C)[C@@]23O[C@@H]2C[C@@]2(C)[C@@H](CC[C@@]24CCC(=O)O4)[C@H]13 | 98.1 | 113 | 104 | 106 | 112 | 117 | 117 | 115 | 120 | 121 | 112 | 107 | 109 | 112 | 124 | 123 | 122 | 123 | 127 | 130 | 135 | 128 | 100 | 117 | 115 | 112 | 112 | 115 | 118 | 113 | 117 | 119 | 126
c1cc(N[C@@H]2CCNC2)nc(-c2cnc3ccc(-c4cn[nH]c4)cn23)c1 | 116 | 121 | 122 | 123 | 131 | 130 | 135 | 136 | 132 | 120 | 104 |  |  |  |  |  |  |  |  |  |  |  |  |  |  |  |  |  |  |  |  |  | 
Oc1ccc(C2CNCCc3c2cc(O)c(O)c3Cl)cc1 (configuration not stated) | 92.6 | 92.3 | 86.9 | 97.7 | 92.7 | 98.5 | 92.4 | 95.7 | 96.1 | 100 | 99.4 | 87 | 98.4 | 95.8 | 96.8 | 86.5 | 98.8 | 90.3 | 98 | 96.1 | 103 | 101 | 90.3 | 93.3 | 80.2 | 86.9 | 84.7 | 96.9 | 86.1 | 88.5 | 94.1 | 90 | 92.7
CCCC[N+]1(C)[C@@H]2CC(OC(=O)[C@H](CO)c3ccccc3)C[C@H]1[C@@H]1O[C@@H]12 (some centres not stated) | 114 | 121 | 123 | 118 | 116 | 128 | 118 | 95.2 | 104 | 103 | 110 |  |  |  |  |  |  |  |  |  |  |  |  |  |  |  |  |  |  |  |  |  | 
NC(=O)c1c(OCc2c(F)cc(Br)cc2F)nsc1NC(=O)NCCCCN1CCCC1 | 107 | 112 | 103 | 104 | 99.9 | 102 | 98.8 | 100 | 89.5 | 45.2 | 43.8 |  |  |  |  |  |  |  |  |  |  |  | 123 | 126 | 116 | 111 | 108 | 111 | 111 | 96.7 | 99.6 | 46.9 | 68.1
O=C(O)CCc1ccc(NCc2cccc(Oc3ccccc3)c2)cc1 | 94.5 | 107 | 102 | 104 | 105 | 111 | 108 | 109 | 108 | 119 | 104 | 99.3 | 105 | 111 | 105 | 118 | 111 | 109 | 109 | 110 | 122 | 118 | 88.6 | 96.5 | 103 | 110 | 103 | 104 | 103 | 104 | 100 | 98.6 | 99.9
CC(=O)OCC(CCn1cnc2cnc(N)nc21)COC(C)=O | 92.3 | 103 | 109 | 106 | 113 | 102 | 108 | 106 | 112 | 110 | 111 | 89.8 | 95 | 103 | 103 | 108 | 97.3 | 102 | 102 | 101 | 106 | 103 | 92.5 | 101 | 98 | 87.9 | 105 | 104 | 97 | 106 | 102 | 103 | 97.3
O=C(N[C@H]1CN2CCC1CC2)c1ccc(Cl)cc1 | 99.2 | 107 | 104 | 110 | 110 | 116 | 114 | 114 | 116 | 109 | 99.2 | 110 | 106 | 114 | 103 | 108 | 111 | 114 | 110 | 106 | 101 | 99.9 | 98.2 | 100 | 104 | 114 | 118 | 116 | 113 | 114 | 102 | 104 | 92.4

From the supplement of paper PMC11451515
